In patent US8470828B2, “Anellated pyridine compounds” (Hoffmann-La Roche Inc., priority 2010, dated 2013):

How the values were obtained:
human D2 receptor = target: T1, human D2 receptor (Homo sapiens, UniProt P14416); experiment: Radioligand binding to cloned human D2 receptor expressed in HEK-293 EBNA cells ([3H]-spiperone); details: HEK293 EBNA cell membranes, approximately 0.7 nM [3H]-spiperone, 1 h at RT
T1 construct: expressed in transfected cells; host or cells: HEK293 EBNA cells, transient transfection; membrane preparation

human D3 receptor = human D3 receptor (Homo sapiens, UniProt P35462); experiment: Radioligand binding to cloned human D3 receptor expressed in HEK-293 EBNA cells ([3H]-spiperone)
Procedure: HEK293 EBNA cells were transiently transfected with expression plasmids encoding for the human D2 or D3 or for the human 5-HT2A receptor, respectively. The cells were harvested 48 h post-transfection, washed three times with cold PBS and stored at −80° C. prior to use. The pellet was suspended in cold 50 mM Tris-HCl buffer comprising 10 mM EDTA (pH 7.4) and was homogenized with a Polytron (Kinematica A G, Basel, Switzerland) for 20-30 sec at 12.000 rpm. After centrifugation at 48.000×g for 30 min at 4° C., the pellet was resuspended in cold 10 mM Tris-HCl buffer comprising 0.1 mM EDTA (pH 7.4), homogenized, and centrifuged as above. This pellet was further resuspended in a smaller volume of ice cold 10 mM Tris-HCl buffer comprising 0.1 mM EDTA (pH 7.4) and homogenized with a Polytron for 20-30 sec at 12.000 rpm. The protein content of this homogenate was determined with the Bio-Rad (Bradford) Protein Assay (Biorad Laboratories GmbH, München, Germany) according to the instructions of the manufacturer using gamma globulin as the standard. This homogenate was stored at −80° C. in aliquots and thawed immediately prior to use.
Aliquots of membrane preparations were thawed at RT, resupended in assay buffer (D2, D3: 50 mM Tris-HCl, 120 mM NaCl, 5 mM MgCl2, 1 mM EDTA, 5 mM KCl, 1.5 mM CaCl2, pH=7.4; 5-HT2A: 50 mM Tris-HCl, 10 mM MgCl2, 1 mM EGTA, pH=7.4), homogenized with a Polytron for 20-30 sec at 12.000 rpm and adjusted to a final concentration of approximately 7.5 μg protein/well (D2, D3) and 15 μg protein/well (5-HT2A), respectively.
The binding affinity (Ki) of the compounds was determined using radioligand binding. Membranes were incubated in a total volume of 200 μl with a fixed concentration of radioligand (final concentration approximately 0.7 nM [^3H]-spiperone for D2, 0.5 nM [^3H]-spiperone for D3, and 1.1 nM [^3H]-ketanserin for 5-HT2A) and ten concentrations of test compound in ranging between 10 μM-0.1 nM for 1 h at RT. At the end of the incubation, the reaction mixtures were filtered on to unifilter 96-well white microplates with bonded GF/C filters (Packard BioScience, Zürich, Switzerland; preincubated for 1 h in 0.1% polyethylenimine (PEI) in assay buffer) with a Filtermate 196 harvester (Packard BioScience) and washed 3 times with cold assay buffer. The nonspecific binding was determined with equally composed reaction mixtures in the presence of 10 μM unlabelled spiperone. Per well 45 μl of Microscint 40 (Perkin Elmer, Schwerzenbach, Switzerland) was added, plates for sealed, shaken for 20 min and counted for 3 min on a Topcount Microplate Scintillation Counter (Can berra Packard S A, Zürich, Switzerland) with quenching correction.
The CPM value for each duplicate of a concentration of competing compound was averaged (y1), then the % specific binding was calculated according to the equation (((y1−non-specific)/(total binding−non-specific))×100). Graphs were plotted with the % specific binding using XLfit, a curve fitting program that iteratively plots the data using Levenberg-Marquardt algorithm. The single site competition analysis equation used was y=A+((B−A)/(1+((x/C)D))), where y is the % specific binding, A is the minimum y, B is the maximum y, C is the IC50, x is the log 10 of the concentration of the competing compound and D is the slope of the curve (the Hill Coefficient). […] The affinity constant (Ki) was calculated using the Cheng-Prusoff equation Ki=(IC50/1+([L]/Kd), where [L] is the concentration of radioligand and Kd is the dissociation constant of the radioligand at the receptor as determined by the saturation isotherm.

human 5-HT2A receptor = human 5-HT2A receptor (Homo sapiens, UniProt P28223); experiment: Radioligand binding to cloned human 5-HT2A receptor expressed in HEK-293 EBNA cells ([3H]-ketanserin)
human 5-HT2A receptor, sequence (P28223 whole entry): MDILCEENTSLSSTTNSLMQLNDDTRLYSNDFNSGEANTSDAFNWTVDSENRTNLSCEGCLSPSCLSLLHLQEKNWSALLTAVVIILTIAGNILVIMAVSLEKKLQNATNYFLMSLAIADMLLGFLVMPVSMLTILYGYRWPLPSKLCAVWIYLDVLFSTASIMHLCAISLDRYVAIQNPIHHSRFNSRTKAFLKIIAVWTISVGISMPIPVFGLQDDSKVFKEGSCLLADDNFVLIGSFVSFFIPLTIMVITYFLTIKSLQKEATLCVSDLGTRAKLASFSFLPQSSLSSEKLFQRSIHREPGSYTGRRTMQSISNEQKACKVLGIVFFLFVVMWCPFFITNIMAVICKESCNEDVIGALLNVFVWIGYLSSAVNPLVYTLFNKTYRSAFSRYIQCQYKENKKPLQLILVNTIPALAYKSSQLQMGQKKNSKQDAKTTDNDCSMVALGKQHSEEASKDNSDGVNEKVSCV

human D3 receptor, sequence (P35462 whole entry): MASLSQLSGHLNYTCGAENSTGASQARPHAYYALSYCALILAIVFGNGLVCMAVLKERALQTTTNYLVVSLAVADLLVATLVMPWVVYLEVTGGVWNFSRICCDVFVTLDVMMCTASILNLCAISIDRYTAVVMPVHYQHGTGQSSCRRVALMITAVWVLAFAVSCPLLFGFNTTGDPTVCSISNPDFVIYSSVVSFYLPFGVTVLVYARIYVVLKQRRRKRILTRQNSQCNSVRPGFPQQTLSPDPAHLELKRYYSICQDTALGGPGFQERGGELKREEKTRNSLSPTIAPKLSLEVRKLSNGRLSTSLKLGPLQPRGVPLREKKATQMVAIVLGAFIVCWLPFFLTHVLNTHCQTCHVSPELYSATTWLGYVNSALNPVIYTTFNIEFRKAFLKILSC
T1 sequence (P14416 whole entry): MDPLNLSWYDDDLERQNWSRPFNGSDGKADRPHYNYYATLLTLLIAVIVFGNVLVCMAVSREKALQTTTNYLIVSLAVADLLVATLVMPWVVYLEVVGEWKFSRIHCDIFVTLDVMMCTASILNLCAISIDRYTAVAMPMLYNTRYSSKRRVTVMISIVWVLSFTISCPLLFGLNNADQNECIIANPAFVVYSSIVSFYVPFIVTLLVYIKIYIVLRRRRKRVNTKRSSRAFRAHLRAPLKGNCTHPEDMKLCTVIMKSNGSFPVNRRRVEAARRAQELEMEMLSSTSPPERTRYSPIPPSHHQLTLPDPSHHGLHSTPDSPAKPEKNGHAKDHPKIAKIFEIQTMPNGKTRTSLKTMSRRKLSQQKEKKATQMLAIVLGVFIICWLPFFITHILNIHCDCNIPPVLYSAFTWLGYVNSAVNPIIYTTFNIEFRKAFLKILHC

Compound | Ki (human D2 receptor) [nM] | Ki (human D3 receptor) [nM] | Ki (human 5-HT2A receptor) [nM] | melting point [°C]
CO[C@@H]1CC[C@@H](CC(=O)N[C@H]2CC[C@H](CCN3CCN(c4nccc5ccsc45)CC3)CC2)C1 (racemic) [Example 5, 2-(trans-3-Methoxy-cyclopentyl)-N-{trans-4-[2-(4-thieno[2,3-c]pyridin-7-yl-piperazin-1-yl)-ethyl]cyclohexyl}-acetamide] | 433 | 10 | 7.7 | 
O=C(CC1COCCO1)N[C@H]1CC[C@H](CCN2CCN(c3nccc4ccoc34)CC2)CC1 (mixture of isomers) [Example 15, trans-2-rac-[1,4]Dioxan-2-yl-N-{4-[2-(4-furo[2,3-c]pyridin-7-yl-piperazin-1-yl)-ethyl]-cyclohexyl}-acetamide] | 975 | 9.32 | 8.16 | 193
O=C(CC1CCCO1)N[C@H]1CC[C@H](CCN2CCN(c3nccc4c3OCC4)CC2)CC1 (mixture of isomers) [Example 29, trans-N-(4-{2-[4-(2,3-Dihydro-furo[2,3-c]pyridin-7-yl)-piperazin-1-yl]-ethyl}-cyclohexyl)-2-rac-(tetrahydro-furan-2-yl)-acetamide] | 354 | 9.31 | 45.2 | 173.5
O=C(N[C@H]1CC[C@H](CCN2CCN(c3nccc4c3OCC4)CC2)CC1)C(O)C(F)(F)F (mixture of isomers) [Example 58, trans-N-(4-{2-[4-(2,3-Dihydro-furo[2,3-c]pyridin-7-yl)-piperazin-1-yl]-ethyl}-cyclohexyl)-(RS)-3,3,3-trifluoro-2-hydroxy-propionamide] | 712 | 13.9 | 32.9 | 185
O=C(N[C@H]1CC[C@H](CCN2CCN(c3nccc4c3OCC4)CC2)CC1)C1CCCO1 (mixture of isomers) [Example 82, (RS)-Tetrahydro-furan-2-carboxylic acid trans-(4-{2-[4-(2,3-dihydro-furo[2,3-c]pyridin-7-yl)-piperazin-1-yl]-ethyl}-cyclohexyl)-amide] | 1140 | 72.8 | 20.4 | 145
CCC(C)C(=O)N[C@H]1CC[C@H](CCN2CCN(c3nccc4c3OCC4)CC2)CC1 (mixture of isomers) [Example 83, trans-N-(4-{2-[4-(2,3-Dihydro-furo[2,3-c]pyridin-7-yl)-piperazin-1-yl]-ethyl}-cyclohexyl)-(RS)-2-methyl-butyramide] | 714 | 17.3 | 48.9 | 196.5
O=C(N[C@H]1CC[C@H](CCN2CCN(c3nccc4c3OCC4)CC2)CC1)C1CCCOC1 (mixture of isomers) [Example 97, (RS)-Tetrahydro-pyran-3-carboxylic acid trans-(4-{2-[4-(2,3-dihydro-furo[2,3-c]pyridin-7-yl)-piperazin-1-yl]-ethyl}-cyclohexyl)-amide] | 604 | 23.1 | 27.8 | 203
COC(C)CC(=O)N[C@H]1CC[C@H](CCN2CCN(c3nccc4c3OCC4)CC2)CC1 (mixture of isomers) [Example 101, trans-N-(4-{2-[4-(2,3-Dihydro-furo[2,3-c]pyridin-7-yl)-piperazin-1-yl]-ethyl}-cyclohexyl)-(RS)-3-methoxy-butyramide] | 633 | 8.85 | 55.5 | 168.5
CC(=O)N[C@H]1CC[C@H](CCN2CCN(c3nccc4ccsc34)CC2)CC1 [Example 1, N-{trans-4-[2-(4-Thieno[2,3-c]pyridin-7-yl-piperazin-1-yl)-ethyl]-cyclohexyl}-acetamide] | 392 | 2.3 | 11.9 | 
CCC(=O)N[C@H]1CC[C@H](CCN2CCN(c3nccc4ccsc34)CC2)CC1 [Example 2, N-{trans-4-[2-(4-Thieno[2,3-c]pyridin-7-yl-piperazin-1-yl)-ethyl]-cyclohexyl}-propionamide] | 229 | 1.9 | 9.2 | 
COCCC(=O)N[C@H]1CC[C@H](CCN2CCN(c3nccc4ccsc34)CC2)CC1 [Example 3, 3-Methoxy-N-{trans-4-[2-(4-thieno[2,3-c]pyridin-7-yl-piperazin-1-yl)-ethyl]-cyclohexyl}-propionamide] | 401 | 1.9 | 10.6 | 
CO[C@H]1CC[C@H](CC(=O)N[C@H]2CC[C@H](CCN3CCN(c4nccc5ccsc45)CC3)CC2)CC1 [Example 4, 2-(trans-4-Methoxy-cyclohexyl)-N-{trans-4-[2-(4-thieno[2,3-c]pyridin-7-yl-piperazin-1-yl)-ethyl]-cyclohexyl}-acetamide] | 739 | 14 | 9.6 | 
CC(=O)N[C@H]1CC[C@H](CCN2CCN(c3nccc4c3OCC4)CC2)CC1 [Example 6, trans-N-(4-{2-[4-(2,3-Dihydro-furo[2,3-c]pyridin-7-yl)-piperazin-1-yl]-ethyl}-cyclohexyl)-acetamide] | 472 | 4 | 58.2 | 195
O=C(N[C@H]1CC[C@H](CCN2CCN(c3nccc4c3OCC4)CC2)CC1)C1CCOCC1 [Example 7, trans-Tetrahydro-pyran-4-carboxylic acid (4-{2-[4-(2,3-dihydro-furo[2,3-c]pyridin-7-yl)-piperazin-1-yl]-ethyl}-cyclohexyl)-amide] | 354 | 13.1 | 15.6 | 236.5
O=C(CC1CCOCC1)N[C@H]1CC[C@H](CCN2CCN(c3nccc4c3OCC4)CC2)CC1 [Example 8, trans-N-(4-{2-[4-(2,3-Dihydro-furo[2,3-c]pyridin-7-yl)-piperazin-1-yl]-ethyl}-cyclohexyl)-2-(tetrahydro-pyran-4-yl)-acetamide] | 1480 | 7.49 | 48.9 | 222.5
COCCC(=O)N[C@H]1CC[C@H](CCN2CCN(c3nccc4c3OCC4)CC2)CC1 [Example 9, trans-N-(4-{2-[4-(2,3-Dihydro-furo[2,3-c]pyridin-7-yl)-piperazin-1-yl]-ethyl}-cyclohexyl)-3-methoxy-propionamide] | 991 | 5.14 | 67.5 | 180
CC(=O)N[C@H]1CC[C@H](CCN2CCN(c3nccc4ccoc34)CC2)CC1 [Example 10, trans-N-{4-[2-(4-Furo[2,3-c]pyridin-7-yl-piperazin-1-yl)-ethyl]-cyclohexyl}-acetamide] | 684 | 6.44 | 18.8 | 157
O=C(N[C@H]1CC[C@H](CCN2CCN(c3nccc4ccoc34)CC2)CC1)C1CCOCC1 [Example 11, Tetrahydro-pyran-4-carboxylic acid trans-{4-[2-(4-furo[2,3-c]pyridin-7-yl-piperazin-1-yl)-ethyl]-cyclohexyl}-amide] | 511 | 22.6 | 7.29 | 211
O=C(CC1CCOCC1)N[C@H]1CC[C@H](CCN2CCN(c3nccc4ccoc34)CC2)CC1 [Example 12, trans-N-{4-[2-(4-Furo[2,3-c]pyridin-7-yl-piperazin-1-yl)-ethyl]-cyclohexyl}-2-(tetrahydro-pyran-4-yl)-acetamide] | 1150 | 14.7 | 21.7 | 213
COCCC(=O)N[C@H]1CC[C@H](CCN2CCN(c3nccc4ccoc34)CC2)CC1 [Example 13, trans-N-{4-[2-(4-Furo[2,3-c]pyridin-7-yl-piperazin-1-yl)-ethyl]-cyclohexyl}-3-methoxy-propionamide] | 1130 | 7.85 | 20.7 | 146
CCC(=O)N[C@H]1CC[C@H](CCN2CCN(c3nccc4ccoc34)CC2)CC1 [Example 14, trans-N-{4-[2-(4-Furo[2,3-c]pyridin-7-yl-piperazin-1-yl)-ethyl]-cyclohexyl}-propionamide] | 502 | 3.57 | 9.48 | 187.5
COCC(=O)N[C@H]1CC[C@H](CCN2CCN(c3nccc4ccoc34)CC2)CC1 [Example 16, trans-N-{4-[2-(4-Furo[2,3-c]pyridin-7-yl-piperazin-1-yl)-ethyl]-cyclohexyl}-2-methoxy-acetamide] | 1230 | 17.7 | 9.97 | 132
CS(=O)(=O)CC(=O)N[C@H]1CC[C@H](CCN2CCN(c3nccc4ccoc34)CC2)CC1 [Example 17, trans-N-{4-[2-(4-Furo[2,3-c]pyridin-7-yl-piperazin-1-yl)-ethyl]-cyclohexyl}-2-methanesulfonyl-acetamide] | 576 | 4.26 | 10.9 | 182
CCC(=O)N[C@H]1CC[C@H](CCN2CCN(c3nccc4c3OCC4)CC2)CC1 [Example 18, trans-N-(4-{2-[4-(2,3-Dihydro-furo[2,3-c]pyridin-7-yl)-piperazin-1-yl]-ethyl}-cyclohexyl)-propionamide] | 648 | 3.94 | 43.3 | 196
O=C(CC1COCCO1)N[C@H]1CC[C@H](CCN2CCN(c3nccc4c3OCC4)CC2)CC1 (stereo partly drawn) [Example 19, trans-N-(4-{2-[4-(2,3-Dihydro-furo[2,3-c]pyridin-7-yl)-piperazin-1-yl]-ethyl}-cyclohexyl)-2-[1,4]dioxan-2-yl-acetamide] | 1220 | 8.9 | 29.7 | 194.5
O=C(Cc1ccc2c(c1)OCO2)N[C@H]1CC[C@H](CCN2CCN(c3nccc4c3OCC4)CC2)CC1 [Example 80, trans-2-Benzo[1,3]dioxol-5-yl-N-(4-{2-[4-(2,3-dihydro-furo[2,3-c]pyridin-7-yl)-piperazin-1-yl]-ethyl}-cyclohexyl)-acetamide] |  | 6.08 | 48.5 | 187
